# How the values were obtained:
# [1] = molecular target: GCN2 (Homo sapiens, UniProt Q9P2K8); experiment: GCN2 enzyme assay; format: biochemical
# [2] = molecular target: T1, SYK (Homo sapiens, UniProt P43405); experiment: SYK flash plate assay (enzyme assay); format: biochemical
# T1 construct: 2.5 nM SYK, 400 nM Biotin-Aha-Aha-KEDPDYEWPSAKK
# Outline: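 Radiometric Flashplate format: biotinylated peptide substrate (400 nM) and 33P-labelled ATP (10 μM) react with 2.5 nM enzyme for 1 hour at 30 °C in Hepes buffer, pH 7.5. After EDTA quench and washing, counts are taken; staurosporine defines non-specific signal, and IC50 values are derived.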
# Chain of GCN2 (Q9P2K8 whole entry): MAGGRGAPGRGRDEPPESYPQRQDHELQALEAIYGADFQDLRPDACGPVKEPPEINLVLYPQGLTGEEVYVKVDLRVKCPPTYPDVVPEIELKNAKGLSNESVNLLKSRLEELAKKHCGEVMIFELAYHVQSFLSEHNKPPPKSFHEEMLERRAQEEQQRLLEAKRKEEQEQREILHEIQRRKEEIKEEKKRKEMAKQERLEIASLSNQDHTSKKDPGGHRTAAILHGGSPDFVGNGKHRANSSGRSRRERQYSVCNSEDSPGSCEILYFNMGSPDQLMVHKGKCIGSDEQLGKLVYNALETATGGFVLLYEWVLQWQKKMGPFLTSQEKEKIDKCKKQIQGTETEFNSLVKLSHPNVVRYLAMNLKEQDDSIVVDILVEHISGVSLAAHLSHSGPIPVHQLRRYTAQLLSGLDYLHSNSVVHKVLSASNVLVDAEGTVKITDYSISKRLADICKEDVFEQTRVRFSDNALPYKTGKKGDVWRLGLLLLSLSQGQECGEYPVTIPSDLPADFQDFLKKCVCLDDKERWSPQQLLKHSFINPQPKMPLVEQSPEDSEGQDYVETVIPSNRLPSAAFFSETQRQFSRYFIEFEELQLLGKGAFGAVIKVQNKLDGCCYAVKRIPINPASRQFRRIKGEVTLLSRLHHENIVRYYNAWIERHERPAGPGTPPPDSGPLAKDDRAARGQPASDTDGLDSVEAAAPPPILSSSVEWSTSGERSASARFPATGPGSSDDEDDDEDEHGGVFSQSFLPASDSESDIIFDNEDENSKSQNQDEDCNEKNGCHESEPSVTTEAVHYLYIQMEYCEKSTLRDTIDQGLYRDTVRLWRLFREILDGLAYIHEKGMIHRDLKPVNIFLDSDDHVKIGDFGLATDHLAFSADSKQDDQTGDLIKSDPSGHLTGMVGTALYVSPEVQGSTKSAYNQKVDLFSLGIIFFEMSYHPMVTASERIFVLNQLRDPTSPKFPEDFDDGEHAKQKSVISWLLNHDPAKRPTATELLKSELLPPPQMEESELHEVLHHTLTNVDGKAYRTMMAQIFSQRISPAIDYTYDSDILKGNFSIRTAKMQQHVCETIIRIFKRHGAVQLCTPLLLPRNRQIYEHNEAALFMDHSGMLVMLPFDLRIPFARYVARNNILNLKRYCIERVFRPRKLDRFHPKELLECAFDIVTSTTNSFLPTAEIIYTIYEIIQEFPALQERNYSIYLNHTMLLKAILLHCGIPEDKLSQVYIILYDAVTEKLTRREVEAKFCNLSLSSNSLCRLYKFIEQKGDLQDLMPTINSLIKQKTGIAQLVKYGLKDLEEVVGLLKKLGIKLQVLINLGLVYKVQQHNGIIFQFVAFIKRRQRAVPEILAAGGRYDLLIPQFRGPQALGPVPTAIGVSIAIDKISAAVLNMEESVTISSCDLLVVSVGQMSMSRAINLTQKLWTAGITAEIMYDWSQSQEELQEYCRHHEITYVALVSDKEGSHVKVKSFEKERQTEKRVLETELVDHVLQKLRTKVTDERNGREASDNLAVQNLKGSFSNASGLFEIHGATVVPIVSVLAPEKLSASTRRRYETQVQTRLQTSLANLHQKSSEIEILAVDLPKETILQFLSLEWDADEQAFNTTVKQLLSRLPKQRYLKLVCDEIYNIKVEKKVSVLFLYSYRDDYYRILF
SMILES,IC50 [1],IC50 [2]
"Cn1cc(-c2nccn3nc(Nc4ccc5c(c4)NC(=O)C5)nc23)cn1 [C60, 6-[8-(1-methyl-1H-pyrazol-4-yl)-[1,2,4]triazolo[1,5-a]pyrazin-2-ylamino]-1,3-dihydro-indol-2-one]",0.3 to 3 µM,0.3 to 3 µM
"Cn1cc(-c2nccn3nc(Nc4ccc(C(C)(C)O)cc4)nc23)cn1 [C61, 2-{4-[8-(1-methyl-1H-pyrazol-4-yl)-[1,2,4]triazolo[1,5-a]pyrazin-2-ylamino]-phenyl}-propan-2-ol]",0.3 to 3 µM,0.1 to 0.3 µM
"Cn1cc(-c2nccn3nc(Nc4ccc(C5(C#N)CC5)cc4)nc23)cn1 [C63, 1-{4-[8-(1-methyl-1H-pyrazol-4-yl)-[1,2,4]triazolo[1,5-a]pyrazin-2-ylamino]-phenyl}-cyclopropanecarbonitrile]",0.3 to 3 µM,0.1 to 0.3 µM
"Cn1cc(-c2nccn3nc(Nc4ccc(C5(C(N)=O)CC5)cc4)nc23)cn1 [C64, 1-{4-[8-(1-methyl-1H-pyrazol-4-yl)-[1,2,4]triazolo[1,5-a]pyrazin-2-ylamino]-phenyl}-cyclopropanecarboxylic acid amide]",0.3 to 3 µM,0.3 to 3 µM
"N#CC1(c2ccc(Nc3nc4c(-c5cn[nH]c5)nccn4n3)cc2)CC1 [C65, 1-{4-[8-(1H-pyrazol-4-yl)-[1,2,4]triazolo[1,5-a]pyrazin-2-ylamino]-phenyl}-cyclopropanecarbonitrile]",3 to 50 µM,0.1 to 0.3 µM
"NC(=O)C1(c2ccc(Nc3nc4c(-c5cn[nH]c5)nccn4n3)cc2)CC1 [C66, 1-{4-[8-(1H-pyrazol-4-yl)-[1,2,4]triazolo[1,5-a]pyrazin-2-ylamino]-phenyl}-cyclopropanecarboxylic acid amide]",3 to 50 µM,0.1 to 0.3 µM
"CC1(C)C(=O)Nc2cc(Nc3nc4c(-c5cn[nH]c5)nccn4n3)ccc21 [C67, 3,3-dimethyl-6-[8-(1H-pyrazol-4-yl)-[1,2,4]triazolo[1,5-a]pyrazin-2-ylamino]-1,3-dihydro-indol-2-one]",0.3 to 3 µM,< 0.1 µM
"Cc1nn(C)cc1-c1nccn2nc(Nc3ccc4c(c3)NC(=O)C4(C)C)nc12 [C69, 6-[8-(1,3-dimethyl-1H-pyrazol-4-yl)-[1,2,4]triazolo[1,5-a]pyrazin-2-ylamino]-3,3-dimethyl-1,3-dihydro-indol-2-one]",0.3 to 3 µM,0.1 to 0.3 µM
"CC1(C)C(=O)Nc2cc(Nc3nc4c(-c5ccc(S(C)(=O)=O)cc5)nccn4n3)ccc21 [C70, 6-[8-(4-Methanesulfonyl-phenyl)-[1,2,4]triazolo[1,5-a]pyrazin-2-ylamino]-3,3-dimethyl-1,3-dihydro-indol-2-one]",0.3 to 3 µM,0.1 to 0.3 µM
"Cn1cc(-c2nccn3nc(Nc4ccc5c(c4)NC(=O)C5(C)O)nc23)cn1 (stereo not shown) [C71, 3-hydroxy-3-methyl-6-[8-(1-methyl-1H-pyrazol-4-yl)-[1,2,4]triazolo[1,5-a]pyrazin-2-ylamino]-1,3-dihydro-indol-2-one]",0.3 to 3 µM,0.1 to 0.3 µM
"Cn1cc(-c2nccn3nc(Nc4ccc5c(C(C)(C)O)n[nH]c5c4)nc23)cn1 [C72, 2-{6-[8-(1-methyl-1H-pyrazol-4-yl)-[1,2,4]triazolo[1,5-a]pyrazin-2-ylamino]-1H-indazol-3-yl}-propan-2-ol]",0.3 to 3 µM,< 0.1 µM
"CC1(C)C(=O)Nc2cc(Nc3nc4c(N5CC[C@@H](O)C5)nccn4n3)ccc21 [C73, 6-[8-((R)-3-hydroxy-pyrrolidin-1-yl)-[1,2,4]triazolo[1,5-a]pyrazin-2-ylamino]-3,3-dimethyl-1,3-dihydro-indol-2-one]",3 to 50 µM,0.1 to 0.3 µM
"CC1(C)C(=O)Nc2cc(Nc3nc4c(N5CC(O)C5)nccn4n3)ccc21 [C74, 6-[8-(3-hydroxy-azetidin-1-yl)-[1,2,4]triazolo[1,5-a]pyrazin-2-ylamino]-3,3-dimethyl-1,3-dihydro-indol-2-one]",3 to 50 µM,0.1 to 0.3 µM
"CN(c1nccn2nc(Nc3ccc4c(c3)NC(=O)C4(C)C)nc12)C1CCCCC1 [C78, 6-[8-(cyclohexyl-methyl-amino)-[1,2,4]triazolo[1,5-a]pyrazin-2-ylamino]-3,3-dimethyl-1,3-dihydro-indol-2-one]",3 to 50 µM,0.3 to 3 µM
"Cn1cc(-c2nccn3nc(Nc4ccc5c(c4)NC(=O)C(C)(C)O5)nc23)cn1 [C80, 2,2-dimethyl-6-[8-(1-methyl-1H-pyrazol-4-yl)-[1,2,4]triazolo[1,5-a]pyrazin-2-ylamino]-4H-benzo[1,4]oxazin-3-one]",3 to 50 µM,0.1 to 0.3 µM
"CC1(C)C(=O)Nc2cc(Nc3nc4c(N5CCC6(COC6)C5)nccn4n3)ccc21 [C81, 3,3-dimethyl-6-[8-(2-oxa-6-aza-spiro[3.4]oct-6-yl)-[1,2,4]triazolo[1,5-a]pyrazin-2-ylamino]-1,3-dihydro-indol-2-one]",3 to 50 µM,< 0.1 µM
"CC(C)C1(O)C(=O)Nc2cc(Nc3nc4c(-c5cnn(C)c5)nccn4n3)ccc21 (stereo not shown) [C82, 3-hydroxy-3-isopropyl-6-[8-(1-methyl-1H-pyrazol-4-yl)-[1,2,4]triazolo[1,5-a]pyrazin-2-ylamino]-1,3-dihydro-indol-2-one]",0.3 to 3 µM,0.1 to 0.3 µM
"CC1(C)C(=O)Nc2cc(Nc3nc4c(N5CC[C@H](O)C5)nccn4n3)ccc21 [C83, 6-[8-((S)-3-hydroxy-pyrrolidin-1-yl)-[1,2,4]triazolo[1,5-a]pyrazin-2-ylamino]-3,3-dimethyl-1,3-dihydro-indol-2-one]",3 to 50 µM,0.1 to 0.3 µM
"CC1(C)C(=O)Nc2cc(Nc3nc4c(N5CCC[C@H]5CO)nccn4n3)ccc21 [C84, 6-[8-((S)-2-hydroxymethyl-pyrrolidin-1-yl)-[1,2,4]triazolo[1,5-a]pyrazin-2-ylamino]-3,3-dimethyl-1,3-dihydro-indol-2-one]",3 to 50 µM,0.1 to 0.3 µM
"CC1(C)C(=O)Nc2cc(Nc3nc4c(N[C@H]5CCCNC5)nccn4n3)ccc21 [C85, 3,3-dimethyl-6-[8-((S)-piperidin-3-ylamino)-[1,2,4]triazolo[1,5-a]pyrazin-2-ylamino]-1,3-dihydro-indol-2-one]",3 to 50 µM,< 0.1 µM

# Continued, values first:
IC50 [1],IC50 [2],SMILES
3 to 50 µM,0.3 to 3 µM,"CC1(C)C(=O)Nc2cc(Nc3nc4c(N5CC[C@H](N)C5)nccn4n3)ccc21 [C86, 6-[8-((S)-3-amino-pyrrolidin-1-yl)-[1,2,4]triazolo[1,5-a]pyrazin-2-ylamino]-3,3-dimethyl-1,3-dihydro-indol-2-one]"
3 to 50 µM,0.3 to 3 µM,"CN(c1nccn2nc(Nc3ccc4c(c3)NC(=O)C4(C)C)nc12)C1CCCNC1 (stereo not shown) [C88, 3,3-dimethyl-6-[8-(methyl-piperidin-3-yl-amino)-[1,2,4]triazolo[1,5-a]pyrazin-2-ylamino]-1,3-dihydro-indol-2-one]"
3 to 50 µM,< 0.1 µM,"CC1(C)C(=O)Nc2cc(Nc3nc4c(N5CC6(COC6)C5)nccn4n3)ccc21 [C91, 3,3-dimethyl-6-[8-(2-oxa-6-aza-spiro[3.3]hept-6-yl)-[1,2,4]triazolo[1,5-a]pyrazin-2-ylamino]-1,3-dihydro-indol-2-one]"
3 to 50 µM,< 0.1 µM,"CC1(C)C(=O)Nc2cc(Nc3nc4c(N5CCC[C@@H](N)C5)nccn4n3)ccc21 [C94, 6-[8-((R)-3-amino-piperidin-1-yl)-[1,2,4]triazolo[1,5-a]pyrazin-2-ylamino]-3,3-dimethyl-1,3-dihydro-indol-2-one]"
3 to 50 µM,< 0.1 µM,"CC1(C)C(=O)Nc2cc(Nc3nc4c(N5CCC6(CC(=O)NC6=O)C5)nccn4n3)ccc21 (stereo not shown) [C95, 7-[2-(3,3-dimethyl-2-oxo-2,3-dihydro-1H-indol-6-ylamino)-[1,2,4]triazolo[1,5-a]pyrazin-8-yl]-2,7-diaza-spiro[4.4]nonane-1,3-dione]"
3 to 50 µM,< 0.1 µM,"CC1(C)C(=O)Nc2cc(Nc3nc4c(N5CCC[C@H](N)C5)nccn4n3)ccc21 [C99, 6-[8-((S)-3-amino-piperidin-1-yl)-[1,2,4]triazolo[1,5-a]pyrazin-2-ylamino]-3,3-dimethyl-1,3-dihydro-indol-2-one]"
3 to 50 µM,0.1 to 0.3 µM,"CN(c1nccn2nc(Nc3ccc4c(c3)NC(=O)C4(C)C)nc12)C1CCOCC1 [C101, 3,3-dimethyl-6-{8-[methyl-(tetrahydro-pyran-4-yl)-amino]-[1,2,4]triazolo[1,5-a]pyrazin-2-ylamino}-1,3-dihydro-indol-2-one]"
3 to 50 µM,< 0.1 µM,"CC1(C)C(=O)Nc2cc(Nc3nc4c(N5CCc6[nH]cnc6C5)nccn4n3)ccc21 [C103, 3,3-dimethyl-6-[8-(1,4,6,7-tetrahydro-imidazo[4,5-c]pyridin-5-yl)-[1,2,4]triazolo[1,5-a]pyrazin-2-ylamino]-1,3-dihydro-indol-2-one]"
3 to 50 µM,0.3 to 3 µM,"CC1(C)C(=O)Nc2cc(Nc3nc4c(N5CCC(N6CCNC6=O)CC5)nccn4n3)ccc21 [C104, 3,3-dimethyl-6-{8-[4-(2-oxo-imidazolidin-1-yl)-piperidin-1-yl]-[1,2,4]triazolo[1,5-a]pyrazin-2-ylamino}-1,3-dihydro-indol-2-one]"
3 to 50 µM,< 0.1 µM,"CC1(C)C(=O)Nc2cc(Nc3nc4c(N5CCC(F)(F)C5)nccn4n3)ccc21 [C105, 6-[8-(3,3-difluoro-pyrrolidin-1-yl)-[1,2,4]triazolo[1,5-a]pyrazin-2-ylamino]-3,3-dimethyl-1,3-dihydro-indol-2-one]"
3 to 50 µM,< 0.1 µM,"CC1(C)C(=O)Nc2cc(Nc3nc4c(N5CCC6(C5)NC(=O)NC6=O)nccn4n3)ccc21 (stereo not shown) [C108, 7-[2-(3,3-dimethyl-2-oxo-2,3-dihydro-1H-indol-6-ylamino)-[1,2,4]triazolo[1,5-a]pyrazin-8-yl]-1,3,7-triaza-spiro[4.4]nonane-2,4-dione]"
0.3 to 3 µM,0.1 to 0.3 µM,Cn1cc(-c2nccn3nc(Nc4ccc5cc[nH]c5c4)nc23)cn1 [C111]
